The record followed here is patent US8569267B2, “Tetracyclic tetrahydrofuran derivatives containing cyclic amine side chain” (Janssen Pharmaceutica, NV, priority 2005, dated 2013).

For test [1], the target named is T1, human Dopamine D2L receptor (Homo sapiens, UniProt P14416).
T1 construct: expressed in transfected cells; host or cells: CHO cells
Briefly: In vitro binding affinity for human D2L receptor ([3H]Spiperone binding). As to conditions: human D2L receptor-transfected CHO cell membranes; for IC50: read-out: D2L pIC50 (converted). The method, then: In Vitro Binding Affinity for Human D2L Receptor
Frozen membranes of human Dopamine D2L receptor-transfected CHO cells were thawed, briefly homogenised using an Ultra-Turrax T25 homogeniser and diluted in Tris-HCl assay buffer containing NaCl, CaCl2, MgCl2, KCl (50, 120, 2, 1, and 5 mM respectively, adjusted to pH 7.7 with HCl) to an appropriate protein concentration optimised for specific and non-specific binding. Radioligand [^3H]Spiperone (NEN, specific activity ˜70 Ci/mmol) was diluted in assay buffer at a concentration of 2 nmol/L. Prepared radioligand (50 μl), along with 50 μl of either the 10% DMSO control, Butaclamol (10^−6 mol/l final concentration), or compound of interest, was then incubated (30 min, 37° C.) with 400 μl of the prepared membrane solution. Membrane-bound activity was filtered through a Packard Filtermate harvester onto GF/B Unifilterplates and washed with ice-cold Tris-HCl buffer (50 mM; pH 7.7; 6×0.5 ml). Filters were allowed to dry before adding scintillation fluid and counting in a Topcount scintillation counter. Percentage specific bound and competition binding curves were calculated using S-Plus software (Insightful).

Test [2] addresses T2, NET (norepinephrine transporter) (Rattus norvegicus, UniProt Q63380).
T2 construct: Cortex from rat brain was collected and homogenised; from tissue; host or cells: rat brain cortex
Briefly: In vitro determination of NET reuptake inhibition ([3H]Nixosetine binding, rat brain cortex). To be noted: rat brain cortex; for IC50: read-out: NET pIC50 (converted). The method, then:
In Vitro Determination of NET Reuptake Inhibition
Cortex from rat brain was collected and homogenised using an Ultra-Turrax T25 and a Dual homogeniser in ice-cold homogenising buffer containing Tris, NaCl and KCl (50 mM, 120 mM and 5 mM, respectively, pH 7.4) prior to dilution to an appropriate protein concentration optimised for specific and non-specific binding. […] Membrane-bound activity was detected by filtration through a Packard Filtermate harvester onto GF/B Unifilterplates, washed with ice-cold Tris-HCl buffer, containing NaCl and KCl (50 mM, 120 mM and 4 mM; pH 7.4; 6×0.5 ml). Filters were allowed to dry for 24 h before adding scintillation fluid. Scintillation fluid was allowed to saturate filters for 24 h before counting in a Topcount scintillation counter. Percentage specific bound and competition binding curves were calculated using S-Plus software (Insightful).

The target in test [3] is T3, human cloned 5-HT2C receptor, expressed in CHO cells (Homo sapiens, UniProt P28335).
T3 construct: expressed in transfected cells; host or cells: CHO cells
T3 sequence (P28335 33-458): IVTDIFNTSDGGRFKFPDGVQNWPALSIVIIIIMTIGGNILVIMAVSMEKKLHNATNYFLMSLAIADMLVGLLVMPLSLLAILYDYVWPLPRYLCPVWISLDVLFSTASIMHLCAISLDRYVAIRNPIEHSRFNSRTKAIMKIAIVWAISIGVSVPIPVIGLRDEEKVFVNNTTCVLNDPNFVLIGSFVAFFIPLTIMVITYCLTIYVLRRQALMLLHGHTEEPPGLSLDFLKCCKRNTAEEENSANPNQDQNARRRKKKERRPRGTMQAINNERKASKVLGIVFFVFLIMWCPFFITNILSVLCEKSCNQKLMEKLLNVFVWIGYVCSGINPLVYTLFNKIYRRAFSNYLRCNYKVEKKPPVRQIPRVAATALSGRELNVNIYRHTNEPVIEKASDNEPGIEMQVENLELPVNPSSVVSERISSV
Briefly: In vitro binding affinity for 5-HT2C receptor ([3H]mesulergine radioligand binding). To be noted: human cloned 5-HT2C receptor; for IC50: read-out: 5-HT2C pIC50 (converted). The method, then:
In Vitro Binding Affinity for 5-HT2A and 5-HT2C Receptors
The interaction of the compounds of Formula (I) with 5-HT2A and 5-HT2C receptors was assessed in in vitro radioligand binding experiments. […] During the incubation, the radioligands bind to the receptor. When equilibrium of binding is reached, the receptor bound radioactivity is separated from the non-bound radioactivity, and the receptor bound activity is counted. The interaction of the test compounds with the receptors is assessed in competition binding experiments. Various concentrations of the test compound are added to the incubation mixture containing the tissue preparation and the radioligand. Binding of the radioligand will be inhibited by the test compound in proportion to its binding affinity and its concentration.

T1 sequence (P14416 whole entry): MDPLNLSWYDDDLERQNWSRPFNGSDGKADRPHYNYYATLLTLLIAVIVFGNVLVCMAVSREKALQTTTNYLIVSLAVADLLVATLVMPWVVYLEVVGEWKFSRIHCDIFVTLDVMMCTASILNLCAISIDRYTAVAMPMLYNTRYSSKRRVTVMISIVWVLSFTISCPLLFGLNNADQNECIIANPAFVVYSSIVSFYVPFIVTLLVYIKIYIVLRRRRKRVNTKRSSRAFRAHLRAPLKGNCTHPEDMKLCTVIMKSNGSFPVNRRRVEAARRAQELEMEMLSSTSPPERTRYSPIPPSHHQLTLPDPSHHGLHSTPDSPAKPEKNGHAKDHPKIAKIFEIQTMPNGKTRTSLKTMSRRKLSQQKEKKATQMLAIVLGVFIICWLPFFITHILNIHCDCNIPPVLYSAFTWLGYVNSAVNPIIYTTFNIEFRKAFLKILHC
T2 sequence (Q63380 1-617): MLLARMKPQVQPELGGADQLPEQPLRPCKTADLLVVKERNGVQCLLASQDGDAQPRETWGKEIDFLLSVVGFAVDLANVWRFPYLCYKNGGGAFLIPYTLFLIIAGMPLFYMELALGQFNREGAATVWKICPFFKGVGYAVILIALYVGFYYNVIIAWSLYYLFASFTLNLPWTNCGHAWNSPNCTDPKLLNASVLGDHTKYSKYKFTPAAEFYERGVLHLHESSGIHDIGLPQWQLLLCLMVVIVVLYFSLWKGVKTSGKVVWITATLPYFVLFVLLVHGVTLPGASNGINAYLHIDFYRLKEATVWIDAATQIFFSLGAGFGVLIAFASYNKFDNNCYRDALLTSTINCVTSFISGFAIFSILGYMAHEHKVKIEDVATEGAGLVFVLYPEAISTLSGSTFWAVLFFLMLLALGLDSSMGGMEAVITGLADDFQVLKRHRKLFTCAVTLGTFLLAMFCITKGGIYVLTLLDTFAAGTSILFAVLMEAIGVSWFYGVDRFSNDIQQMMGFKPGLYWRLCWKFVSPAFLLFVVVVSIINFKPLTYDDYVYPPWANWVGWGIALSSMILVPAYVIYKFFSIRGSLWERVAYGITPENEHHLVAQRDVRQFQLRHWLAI

For `CC1c2ccccc2C2CC(CN3CCC(O)C3)OC2c2cc(F)ccc21.O=C(O)C(=O)O` (mixture of isomers) [Compound 45], in test [1], the “D2L pIC50” value was 6.46. The “NET pIC50” value in test [2] is reported as 7.33. Also, the “5-HT2C pIC50” value in test [3] is 8.66.
On to `CC1c2ccccc2C2CC(CN3CCC(O)C3)OC2c2cc(F)ccc21` (mixture of isomers) [Compound 46], for which the IC50 in test [1] is 0.0174 µM; in test [2], 2.4 µM; in test [3], 0.0011 µM.
On to `Fc1ccc2c(c1)C1OC(CN3CCOC(CCOc4ccccc4)C3)CC1c1ccccc1C2` (mixture of isomers) [Compound 131], for which the IC50 was 0.0195 µM in test [1], 2.4 µM in test [2] and 0.0309 µM in test [3].
For `OCCC1CCCN(CC2CC3c4ccccc4Cc4ccc(F)cc4C3O2)C1` (mixture of isomers) [Compound 152], in that order: 0.017 µM, 3.8 µM and 0.00417 µM.
`O=C(NC1CCN(CC2CC3c4ccccc4Cc4ccc(F)cc4C3O2)CC1)NC1CC1c1ccccc1` (mixture of isomers) [Compound 246]: the IC50 in test [1] is 0.0117 µM; in test [2], 1.35 µM; in test [3], 0.00575 µM.
With `N#Cc1ccc2c(c1)C1CC(CN3CCC(O)C3)OC1c1cc(F)ccc1S2.O=C(O)C(=O)O` (mixture of isomers) [Compound 259], the “D2L pIC50” value in test [1] is listed as 6.59. Moreover, the “NET pIC50” value in test [2] turned out to be 5.38. Moreover, the “5-HT2C pIC50” value in test [3] stood at 7.64.
For `OC1CCCN(CC2CC3c4ccccc4Cc4ccc(F)cc4C3O2)C1` (racemic) [Compound 141], the IC50 in test [1] was 0.0166 µM; in test [2] it was 4.79 µM; in test [3], 0.00115 µM.
The matching figures for `OC1CCCN(CC2CC3c4ccccc4Cc4ccc(F)cc4C3O2)C1` (single isomer, unassigned) [Compound 142]: 0.0145 µM, 2.4 µM and 0.00316 µM.
Take `OC1CCCN(CC2CC3c4ccccc4Cc4ccc(F)cc4C3O2)C1` (single isomer, unassigned) [Compound 143]: the results for the IC50 in test [1], in test [2] and in test [3] were 0.0126 µM, greater than 10 µM and 0.00182 µM, respectively.
Consider `O=C(O)C(=O)O.O[C@@H]1CCN(C[C@H]2C[C@@H]3c4ccccc4Cc4ccc(F)cc4[C@@H]3O2)C1` [Compound 2], for which the “D2L pIC50” value in test [1] is reported as 7.86. Moreover, the “NET pIC50” value in test [2] was found to be 6.34. Moreover, the “5-HT2C pIC50” value in test [3] worked out at 9.58.
For `O=C(O)C(=O)O.O[C@H]1CCN(C[C@H]2C[C@@H]3c4ccccc4Cc4ccc(F)cc4[C@@H]3O2)C1` [Compound 3], in that order: 8.01, 5.45 and 9.57.
Take `COc1ccc(NC(=O)CC2CN(C[C@H]3C[C@@H]4c5ccccc5Cc5ccc(F)cc5[C@@H]4O3)CCO2)cc1` (stereo partly drawn) [Compound 139]: the results for the IC50 in test [1], in test [2] and in test [3] were 0.0562 µM, greater than 10 µM and 0.0245 µM, respectively.
The matching figures for `OC1CCN(C[C@H]2C[C@@H]3c4ccccc4Cc4ccc(F)cc4[C@@H]3O2)CC1` [Compound 144, [2R-(2α, 3aα, 12bβ)]1-(11-fluoro-3,3a,8,12b-tetrahydro-2H-1-oxa-dibenzo[e,h]azulen-2-ylmethyl)-piperidin-4-ol.oxalate (1:1)]: 0.00479 µM, greater than 10 µM and 0.000692 µM.
For `OCC1CCN(CC2CC3c4ccccc4Cc4ccc(F)cc4C3O2)CC1` (stereo not drawn) [Compound 151], in that order: 0.00135 µM, greater than 10 µM and 0.00123 µM.
On to `O=C(O)C1CCN(C[C@H]2C[C@@H]3c4ccccc4Cc4ccc(F)cc4[C@@H]3O2)CC1` [Compound 157], for which the figures for the IC50 in test [1], in test [2] and in test [3] were 0.132 µM, greater than 10 µM and 0.00724 µM, respectively.
For `CCOC(=O)C1CCCN(C[C@H]2C[C@@H]3c4ccccc4Cc4ccc(F)cc4[C@@H]3O2)C1` (stereo partly drawn) [Compound 160], in that order: 0.0145 µM, greater than 10 µM and 0.00288 µM.
For the molecule `CCOC(=O)C1CCN(C[C@H]2C[C@@H]3c4ccccc4Cc4ccc(F)cc4[C@@H]3O2)CC1` [Compound 162], the IC50 in test [1] is 0.00363 µM; in test [2], greater than 10 µM; in test [3], 0.00102 µM.
The matching figures for `CCOC(=O)CC1CCN(CC2CC3c4ccccc4Cc4ccc(F)cc4C3O2)CC1` (stereo not drawn) [Compound 164, [2R-(2α, 3aα, 12bβ)][1-(11-fluoro-3,3a,8,12b-tetrahydro-2H-1-oxa-dibenzo[e,h]-azulen-2-ylmethyl)-piperidin-4-yl]-acetic acid ethyl ester.oxalate (1:1)]: 0.00288 µM, 5.5 µM and 0.00759 µM.
For `CC(=O)OC1CCN(C[C@H]2C[C@@H]3c4ccccc4Cc4ccc(F)cc4[C@@H]3O2)CC1` [Compound 166], in that order: 0.00209 µM, 7.24 µM and less than 0.001 µM.
For `O=C(NCc1cccc(C(F)(F)F)c1)C1CCN(CC2CC3c4ccccc4Cc4ccc(F)cc4C3O2)CC1` (stereo not drawn) [Compound 182], in that order: 0.0316 µM, 6.92 µM and 0.00832 µM.
With `CC(C)c1ccccc1NC(=O)C1CCN(CC2CC3c4ccccc4Cc4ccc(F)cc4C3O2)CC1` (stereo not drawn) [Compound 185], the results for the IC50 in test [1], in test [2] and in test [3] were 0.0155 µM, greater than 10 µM and 0.0107 µM, respectively.
The matching figures for `O=C(Nc1ccccc1F)C1CCN(CC2CC3c4ccccc4Cc4ccc(F)cc4C3O2)CC1` (stereo not drawn) [Compound 189]: 0.00776 µM, greater than 10 µM and 0.00117 µM.
For `O=C(NCc1ccco1)C1CCN(CC2CC3c4ccccc4Cc4ccc(F)cc4C3O2)CC1` (stereo not drawn) [Compound 194], in that order: 0.00501 µM, 9.12 µM and 0.00145 µM.
In the case of `O=C(NCc1cccs1)C1CCN(CC2CC3c4ccccc4Cc4ccc(F)cc4C3O2)CC1` (stereo not drawn) [Compound 195], the IC50 in test [1] is 0.0055 µM; in test [2], 7.76 µM; in test [3], 0.00162 µM.
The matching figures for `O=C(NCc1cccc(I)c1)C1CCN(CC2CC3c4ccccc4Cc4ccc(F)cc4C3O2)CC1` (stereo not drawn) [Compound 196]: 0.0141 µM, 2.75 µM and 0.00501 µM.
For `O=C(NCc1ccccn1)C1CCN(CC2CC3c4ccccc4Cc4ccc(F)cc4C3O2)CC1` (stereo not drawn) [Compound 197], in that order: 0.00457 µM, 8.51 µM and 0.001 µM.
The matching figures for `CC(C)(C)OC(=O)N1CCN(C(=O)C2CCN(CC3CC4c5ccccc5Cc5ccc(F)cc5C4O3)CC2)CC1` (stereo not drawn) [Compound 206]: 0.0407 µM, 1.7 µM and 0.00933 µM.
Take `O=C(C1CCN(CC2CC3c4ccccc4Cc4ccc(F)cc4C3O2)CC1)N1CC=C(c2ccccc2)CC1` (stereo not drawn) [Compound 207]: the IC50 in test [1] is 0.0257 µM; in test [2], 6.17 µM; in test [3], 0.00676 µM.
For the molecule `CC(C)(C)COC(=O)NC1CCN(CC2CC3c4ccccc4Cc4ccc(F)cc4C3O2)CC1` (stereo not drawn) [Compound 215], the IC50 is 0.0158 µM in test [1] and 7.41 µM in test [2].
For the molecule `O=C(O)C(=O)O.OC1CCN(CC2CC3c4ccccc4Oc4ccc(F)cc4C3O2)CC1` (stereo not drawn) [Compound 283], in test [1], the “D2L pIC50” value is recorded as 6.70.
